Assay results as given in ChEMBL document CHEMBL3763113, “Discovery of spirocyclic proline tryptophan hydroxylase-1 inhibitors” (Bioorg Med Chem Lett, 2016).
One block for each compound: values may come before it.

How the values were obtained:
[1] = molecular target: T1, Tryptophan 5-hydroxylase 1 (Homo sapiens, UniProt P17752)
T1 sequence (P17752 whole entry): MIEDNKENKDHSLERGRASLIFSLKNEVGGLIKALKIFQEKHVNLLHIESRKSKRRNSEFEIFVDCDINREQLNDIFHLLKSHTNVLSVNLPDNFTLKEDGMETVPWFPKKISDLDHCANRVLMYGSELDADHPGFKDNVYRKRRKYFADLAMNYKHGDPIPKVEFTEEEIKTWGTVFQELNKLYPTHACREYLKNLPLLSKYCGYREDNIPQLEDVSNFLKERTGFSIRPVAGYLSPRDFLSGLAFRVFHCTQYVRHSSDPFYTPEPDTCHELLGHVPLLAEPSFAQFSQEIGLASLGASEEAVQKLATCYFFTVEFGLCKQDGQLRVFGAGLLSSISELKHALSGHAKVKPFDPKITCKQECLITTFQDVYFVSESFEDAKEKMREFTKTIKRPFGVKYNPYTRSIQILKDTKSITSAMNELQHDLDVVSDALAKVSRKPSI
Description: Inhibition of TPH1 (unknown origin)

Rattus norvegicus [2] = assay: Decrease in 5-HT levels in rat platelet rich plasma at 30 mg/kg, po bid measured after 16 hrs relative to control; type: functional; set-up: scale not given: the % may be the effect or the level left
Rattus norvegicus [3] = assay: Decrease in 5-HT levels in rat intestinal mucosa at 10 mg/kg, po qd measured after 16 hrs relative to control; type: functional; set-up: scale not given: the % may be the effect or the level left
[4] = Clearance in rat at 25 mg/kg, po and 1 mg/kg, iv; type: ADME, organism-based; settings: in vivo
[5] = Half life in rat at 1 mg/kg, iv; type: ADME, organism-based; settings: in vivo
[6] = Volume of distribution at steady state in rat at 1 mg/kg, iv; type: ADME, organism-based; settings: in vivo, read-out: Vdss
[7] = Cmax in rat at 25 mg/kg, po; type: ADME, organism-based; set-up: dose 25 mg/kg, route oral; settings: in vivo
[8] = AUC(0 to last) in rat at 25 mg/kg, po; type: ADME, organism-based; set-up: dose 25 mg/kg, time 0 - last, route oral; settings: in vivo
Rattus norvegicus [9] = assay: Half life in rat assessed as (S)-8-(2-amino-6-((R)-1-(4-chloro-2-(3-methyl-1H-pyrazol-1-yl)phenyl)-2,2,2-trifluoroethoxy)pyrimidin-4-yl)-2,8-diazaspiro[4.5]decane-3-carboxylic acid at 1 mg/kg, iv; type: ADME, organism-based; settings: in vivo
Rattus norvegicus [10] = assay: Cmax in rat assessed as (S)-8-(2-amino-6-((R)-1-(4-chloro-2-(3-methyl-1H-pyrazol-1-yl)phenyl)-2,2,2-trifluoroethoxy)pyrimidin-4-yl)-2,8-diazaspiro[4.5]decane-3-carboxylic acid at 25 mg/kg, po; type: ADME, organism-based; set-up: dose 25 mg/kg, route oral; settings: in vivo
Rattus norvegicus [11] = assay: AUC(0 to last) in rat assessed as (S)-8-(2-amino-6-((R)-1-(4-chloro-2-(3-methyl-1H-pyrazol-1-yl)phenyl)-2,2,2-trifluoroethoxy)pyrimidin-4-yl)-2,8-diazaspiro[4.5]decane-3-carboxylic acid at 25 mg/kg, po; type: ADME, organism-based; set-up: dose 25 mg/kg, route oral, time 0 - last; settings: in vivo
Mus musculus [12] = assay: Decrease in 5-HT levels in mouse at 50 mg/kg, po administered as single dose for 16 hrs; type: functional
Mus musculus [13] = assay: Decrease in 5-HT levels in mouse at 10 mg/kg, po administered as single dose for 16 hrs; type: functional
Rattus norvegicus [14] = assay: Decrease in 5-HT levels in rat platelet rich plasma at 10 mg/kg, po qd measured after 16 hrs relative to control; type: functional; set-up: scale not given: the % may be the effect or the level left
Rattus norvegicus [15] = assay: Decrease in 5-HT levels in rat platelet rich plasma at 30 mg/kg, po qd measured after 16 hrs relative to control; type: functional; set-up: scale not given: the % may be the effect or the level left
Rattus norvegicus [16] = assay: Decrease in 5-HT levels in rat intestinal mucosa at 30 mg/kg, po qd measured after 16 hrs relative to control; type: functional; set-up: scale not given: the % may be the effect or the level left
Rattus norvegicus [17] = assay: Decrease in 5-HT levels in rat intestinal mucosa at 30 mg/kg, po bid measured after 16 hrs relative to control; type: functional; set-up: scale not given: the % may be the effect or the level left

Compound: Cc1ccn(-c2cc(Cl)ccc2[C@@H](Oc2nc(N)nc(N3CCC4(CC3)CNC(C(=O)O)C4)n2)C(F)(F)F)n1 (stereo partly specified)
IC50 [1]: 2.27 µM

Compound: Cc1ccn(-c2cc(Cl)ccc2[C@@H](Oc2cncc(N3CCC4(CC3)CNC(C(=O)O)C4)n2)C(F)(F)F)n1 (stereo partly specified)
IC50 [1]: 20 µM

Compound: Cc1ccn(-c2cc(Cl)ccc2[C@@H](Oc2ccnc(N3CCC4(CC3)CNC(C(=O)O)C4)c2)C(F)(F)F)n1 (stereo partly specified)
IC50 [1]: 0.211 µM

Continued, in another order:

IC50 [1]: 3.42 µM
Compound: Cc1ccn(-c2cc(Cl)ccc2[C@@H](Oc2cnc(N3CCC4(CC3)CNC(C(=O)O)C4)cn2)C(F)(F)F)n1 (stereo partly specified)

IC50 [1]: 5.93 µM
Compound: Cc1ccn(-c2cc(Cl)ccc2[C@@H](Oc2cnnc(N3CCC4(CC3)CNC(C(=O)O)C4)c2)C(F)(F)F)n1 (stereo partly specified)

clearance [4]: 178 mL/min/kg | half-life [5]: 24 min | Vd [6]: 3.1 L/kg | Cmax [7]: 249 ng/mL | AUC(0-t) [8]: 140 ng·h/mL | t1/2 (Rattus norvegicus [9]): 271 min | Cmax (Rattus norvegicus [10]): 2253 ng/mL | AUClast (Rattus norvegicus [11]): 2924 ng·h/mL
Compound: CCOC(=O)[C@@H]1CC2(CCN(c3cc(O[C@H](c4ccc(Cl)cc4-n4ccc(C)n4)C(F)(F)F)nc(N)n3)CC2)CN1
Activity (Rattus norvegicus [2]): 72% | Activity (Rattus norvegicus [3]): 76% | inhibition in vivo at 50 mg/kg (Mus musculus [12]): 56% | inhibition in vivo at 10 mg/kg (Mus musculus [13]): 32% | Activity (Rattus norvegicus [14]): 76% | Activity (Rattus norvegicus [15]): 71% | Activity (Rattus norvegicus [16]): 62% | Activity (Rattus norvegicus [17]): 38%
